ChEMBL document CHEMBL1201862, “PubChem BioAssay data set” (2004)
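Protocol summary: plate cells (96-well), add compound at 5 concentrations, incubate 48 h, interpolate endpoints linearly. GI50: concentration for 50% inhibition of growth.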 Activity calls are given as the source filed them. Rule as the data show it: active = GI50 up to about 1.1 µM and inactive = higher.

Tests used:
Assay in all cases: inhibition of tumour cell growth, NCI panel, 48 h
786-0 = system: 786-0
A498 = system: A498
A549 = system: A549
BT-549 = system: BT-549
CAKI-1 = system: CAKI-1
CCRF-CEM = system: CCRF-CEM
COLO 205 = system: COLO 205
DU-145 = system: DU-145
EKVX = system: EKVX
HCC 2998 = system: HCC 2998
HCT-116 = system: HCT-116
HCT-15 = system: HCT-15
HOP-62 = system: HOP-62
HOP-92 = system: HOP-92
HT-29 = system: HT-29
Hs-578T = system: Hs-578T
IGROV-1 = system: IGROV-1
K562 = system: K562
KM12 = system: KM12
M14 = system: M14
MCF7 = system: MCF7
MDA-MB-231 = system: MDA-MB-231
MDA-MB-435 = system: MDA-MB-435
MDA-N = system: MDA-N
MOLT-4 = system: MOLT-4
Malme-3M = system: Malme-3M
NCI-H226 = system: NCI-H226
NCI-H23 = system: NCI-H23
NCI-H460 = system: NCI-H460
NCI-H522 = system: NCI-H522
NCI/ADR-RES = system: NCI/ADR-RES
OVCAR-3 = system: OVCAR-3
OVCAR-4 = system: OVCAR-4
OVCAR-5 = system: OVCAR-5
OVCAR-8 = system: OVCAR-8
PC-3 = system: PC-3
RPMI-8226 = system: RPMI-8226
SF-268 = system: SF-268
SF-295 = system: SF-295
SF-539 = system: SF-539
SK-MEL-28 = system: SK-MEL-28
SK-MEL-5 = system: SK-MEL-5
SK-OV-3 = system: SK-OV-3
SN12C = system: SN12C
SNB-19 = system: SNB-19
SNB-75 = system: SNB-75
SW-620 = system: SW-620
T47D = system: T47D
U-251 = system: U-251
UACC-257 = system: UACC-257
UACC-62 = system: UACC-62
UO-31 = system: UO-31

In the case of `CCOC(=O)[C@H]1O[C@@H]1C(=O)NC(CC(C)C)C(=O)NCCC(C)C` (some centres not stated), the GI50 (786-0) was > 100 µM (inactive), the GI50 (A498) was > 100 µM (inactive) and the GI50 (A549) was > 100 µM (inactive). The GI50 (BT-549) was > 100 µM (inactive), the GI50 (CAKI-1) was > 100 µM (inactive) and the GI50 (CCRF-CEM) was > 100 µM (inactive). The GI50 (COLO 205) was > 100 µM (inactive), the GI50 (DU-145) was > 100 µM (inactive) and the GI50 (EKVX) was > 100 µM (inactive). The GI50 (HCC 2998) was > 100 µM (inactive), the GI50 (HCT-116) was > 100 µM (inactive) and the GI50 (HCT-15) was greater than 100 µM. The GI50 (HOP-62) was > 100 µM (inactive), the GI50 (HOP-92) was > 100 µM (inactive) and the GI50 (HT-29) was > 100 µM (inactive). For the same compound, the GI50 (Hs-578T) was > 100 µM (inactive), the GI50 (IGROV-1) was > 100 µM (inactive) and the GI50 (K562) was > 100 µM (inactive). For the same compound, the GI50 (KM12) was > 100 µM (inactive), the GI50 (M14) was > 100 µM (inactive) and the GI50 (MCF7) was > 100 µM (inactive). The GI50 (MDA-MB-231) was > 100 µM (inactive), the GI50 (MDA-MB-435) was > 100 µM (inactive) and the GI50 (MDA-N) was > 100 µM (inactive). For the same compound, the GI50 (MOLT-4) was > 100 µM (inactive), the GI50 (Malme-3M) was > 100 µM (inactive) and the GI50 (NCI-H226) was > 100 µM (inactive). The GI50 (NCI-H23) was > 100 µM (inactive), the GI50 (NCI-H460) was > 100 µM (inactive) and the GI50 (NCI-H522) was > 100 µM (inactive). For the same compound, the GI50 (NCI/ADR-RES) was > 100 µM (inactive), the GI50 (OVCAR-3) was > 100 µM (inactive) and the GI50 (OVCAR-4) was > 100 µM (inactive). For the same compound, the GI50 (OVCAR-5) was > 100 µM (inactive), the GI50 (OVCAR-8) was > 100 µM (inactive) and the GI50 (PC-3) was > 100 µM (inactive). The GI50 (RPMI-8226) was > 100 µM (inactive), the GI50 (SF-268) was > 100 µM (inactive) and the GI50 (SF-295) was > 100 µM (inactive). The GI50 (SF-539) was > 100 µM (inactive), the GI50 (SK-MEL-28) was > 100 µM (inactive) and the GI50 (SK-MEL-5) was > 100 µM (inactive). For the same compound, the GI50 (SK-OV-3) was > 100 µM (inactive), the GI50 (SN12C) was > 100 µM (inactive) and the GI50 (SNB-19) was > 100 µM (inactive). The GI50 (SNB-75) was > 100 µM (inactive), the GI50 (SW-620) was > 100 µM (inactive) and the GI50 (T47D) was > 100 µM (inactive). For the same compound, the GI50 (U-251) was > 100 µM (inactive), the GI50 (UACC-257) was > 100 µM (inactive) and the GI50 (UACC-62) was > 100 µM (inactive). For the same compound, the GI50 (UO-31) was > 100 µM (inactive).
